Measured values: patent US8980819B2, “4(3)-(4-hydroxy-4-methylpentyl)-3-cyclohexene-1-carbonitrile” (Kao Corporation, priority 2013, dated 2015)

Experiment: Stability in an aqueous vehicle
Format: physicochemical
Settings: no test data printed

## 4(3)-(4-hydroxy-4-methylpentyl)-3-cyclohexene-1-carbonitrile [Example 1]
  Stability in an aqueous vehicle: stable in an aqueous vehicle
